Data on one compound can be found in patent US20100196343A1, “COMPOSITIONS, METHODS, DEVICES, AND SYSTEMS FOR SKIN CARE” (priority 2008, published 2010).

The test system of this test is skin blemishes. As to the kind of experiment: clinical trial: blue light, white light or 4% BPO composition, number of skin blemishes. Type of test: in vivo. The settings on record: subjects (n=55 in trial). An excerpt:
In another clinical trial, subjects (n=55) were exposed to (a) blue light], (b) white light, or (c) a composition comprising 4% (w/w) benzyol peroxide (BPO). Subjects were re-evaluated weekly during each treatment regime and results are illustrated in FIG. 25. The number of skin blemishes observed on subjects who received blue light therapy dropped by over 35% in the first week and by 55% in the second week. By comparison, the number of skin blemishes observe on subjects who received BPO dropped by just over 20% by the second week and by only 45% after eleven weeks.

In the case of `O=C(OOC(=O)c1ccccc1)c1ccccc1` [BPO, benzyol peroxide], the “number of skin blemishes dropped” value reads like this: (after eleven weeks) 45%; (by the second week) “over 20%”.
